Laboratory results taken from the kinase profiling compilation of Christmann-Franck et al. (2016).

Columns and labels:
Assay in all cases: KINOMEscan competition binding
Details in all cases: compound 10.0 µM
AURKA (human) = AURKA (human) (UniProt O14965)
BMPR2 (human) = BMPR2 (human) (UniProt Q13873)
CDC42BPB (human) = CDC42BPB (human) (UniProt Q9Y5S2)
CDK7 (human) = CDK7 (human) (UniProt P50613)
CDKL2 (human) = CDKL2 (human) (UniProt Q92772)
CLK3 (human) = CLK3 (human) (UniProt P49761)
CSNK1E (human) = CSNK1E (human) (UniProt P49674)
CaMK1 (human) = CaMK1 (human) (UniProt Q14012)
DAPK3 (human) = DAPK3 (human) (UniProt O43293)
DDR2 (human) = DDR2 (human) (UniProt Q16832)
EIF2AK2 (human) = EIF2AK2 (human) (UniProt P19525)
EPHA3 (human) = EPHA3 (human) (UniProt P29320)
EPHB1 (human) = EPHB1 (human) (UniProt P54762)
EPHB3 (human) = EPHB3 (human) (UniProt P54753)
HIPK1 (human) = HIPK1 (human) (UniProt Q86Z02)
IRAK3 (human) = IRAK3 (human) (UniProt Q9Y616)
[1] = target: JAK1 JH1 catalytic (human) (UniProt P23458)
[2] = target: JAK2 JH1 catalytic (human) (UniProt O60674)
MAP3K9 (human) = MAP3K9 (human) (UniProt P80192)
MAP4K5 (human) = MAP4K5 (human) (UniProt Q9Y4K4)
MAPK1 (human) = MAPK1 (human) (UniProt P28482)
MAPK12 (human) = MAPK12 (human) (UniProt P53778)
MAPK4 (human) = MAPK4 (human) (UniProt P31152)
MARK1 (human) = MARK1 (human) (UniProt Q9P0L2)
MUSK (human) = MUSK (human) (UniProt O15146)
MYLK2 (human) = MYLK2 (human) (UniProt Q9H1R3)
NEK6 (human) = NEK6 (human) (UniProt Q9HC98)
NEK7 (human) = NEK7 (human) (UniProt Q8TDX7)
PHKG2 (human) = PHKG2 (human) (UniProt P15735)
PIM1 (human) = PIM1 (human) (UniProt P11309)
PIP4K2B (human) = PIP4K2B (human) (UniProt P78356)
PRKACA (human) = PRKACA (human) (UniProt P17612)
PRKACB (human) = PRKACB (human) (UniProt P22694)
RIOK2 (human) = RIOK2 (human) (UniProt Q9BVS4)
RIPK2 (human) = RIPK2 (human) (UniProt O43353)
ROS1 (human) = ROS1 (human) (UniProt P08922)
RPS6KA6 KD1 (human) = RPS6KA6 KD1 (human) (UniProt Q9UK32)
SRC (human) = SRC (human) (UniProt P12931)
TLK1 (human) = TLK1 (human) (UniProt Q9UKI8)
TSSK1B (human) = TSSK1B (human) (UniProt Q9BXA7)

DAPK3 (human), sequence (O43293 whole entry, looked up): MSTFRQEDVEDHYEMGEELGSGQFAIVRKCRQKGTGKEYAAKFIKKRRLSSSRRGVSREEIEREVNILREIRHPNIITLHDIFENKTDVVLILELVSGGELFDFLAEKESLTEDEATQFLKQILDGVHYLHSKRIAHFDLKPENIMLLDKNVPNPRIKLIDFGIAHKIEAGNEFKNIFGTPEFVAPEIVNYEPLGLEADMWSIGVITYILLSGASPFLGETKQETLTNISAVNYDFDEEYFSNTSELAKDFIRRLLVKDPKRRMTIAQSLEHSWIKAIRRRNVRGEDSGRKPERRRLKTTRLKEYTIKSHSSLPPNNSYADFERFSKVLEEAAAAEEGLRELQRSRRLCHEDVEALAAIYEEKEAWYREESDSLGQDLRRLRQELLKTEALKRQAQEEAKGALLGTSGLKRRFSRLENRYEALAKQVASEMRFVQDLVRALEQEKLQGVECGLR
MAPK12 (human), sequence (P53778 whole entry, looked up): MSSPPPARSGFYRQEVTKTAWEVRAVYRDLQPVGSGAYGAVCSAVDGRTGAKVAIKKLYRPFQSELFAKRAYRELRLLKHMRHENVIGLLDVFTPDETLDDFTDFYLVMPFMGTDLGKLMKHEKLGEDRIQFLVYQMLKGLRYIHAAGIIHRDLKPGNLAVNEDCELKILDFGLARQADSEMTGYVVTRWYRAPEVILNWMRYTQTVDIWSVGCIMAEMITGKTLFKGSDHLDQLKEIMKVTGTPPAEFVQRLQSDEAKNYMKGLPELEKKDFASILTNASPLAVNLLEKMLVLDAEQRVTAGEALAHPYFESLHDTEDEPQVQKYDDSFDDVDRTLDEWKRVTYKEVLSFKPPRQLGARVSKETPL
MUSK (human), sequence (O15146 whole entry, looked up): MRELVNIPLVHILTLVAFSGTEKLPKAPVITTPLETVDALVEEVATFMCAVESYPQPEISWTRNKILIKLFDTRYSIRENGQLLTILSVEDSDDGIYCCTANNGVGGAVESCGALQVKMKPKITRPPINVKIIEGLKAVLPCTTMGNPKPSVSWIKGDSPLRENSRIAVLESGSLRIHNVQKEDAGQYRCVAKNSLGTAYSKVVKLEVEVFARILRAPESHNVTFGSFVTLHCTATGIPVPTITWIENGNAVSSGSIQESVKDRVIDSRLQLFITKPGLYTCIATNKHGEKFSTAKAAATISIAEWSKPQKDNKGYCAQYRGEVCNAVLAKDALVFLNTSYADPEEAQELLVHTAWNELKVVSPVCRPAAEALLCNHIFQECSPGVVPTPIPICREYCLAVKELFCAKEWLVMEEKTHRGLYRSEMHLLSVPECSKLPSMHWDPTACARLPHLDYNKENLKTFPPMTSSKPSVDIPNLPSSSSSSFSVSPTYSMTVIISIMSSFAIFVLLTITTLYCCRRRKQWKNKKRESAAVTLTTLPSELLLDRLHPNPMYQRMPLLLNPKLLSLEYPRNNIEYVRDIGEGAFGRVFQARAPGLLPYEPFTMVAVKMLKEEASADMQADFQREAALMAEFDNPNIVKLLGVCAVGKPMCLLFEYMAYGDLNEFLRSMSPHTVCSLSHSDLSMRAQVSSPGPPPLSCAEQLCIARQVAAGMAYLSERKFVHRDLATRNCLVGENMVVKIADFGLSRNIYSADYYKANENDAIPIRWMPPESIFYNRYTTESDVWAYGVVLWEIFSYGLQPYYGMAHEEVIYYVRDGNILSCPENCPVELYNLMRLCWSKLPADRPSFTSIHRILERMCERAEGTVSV
BMPR2 (human), sequence (Q13873 whole entry, looked up): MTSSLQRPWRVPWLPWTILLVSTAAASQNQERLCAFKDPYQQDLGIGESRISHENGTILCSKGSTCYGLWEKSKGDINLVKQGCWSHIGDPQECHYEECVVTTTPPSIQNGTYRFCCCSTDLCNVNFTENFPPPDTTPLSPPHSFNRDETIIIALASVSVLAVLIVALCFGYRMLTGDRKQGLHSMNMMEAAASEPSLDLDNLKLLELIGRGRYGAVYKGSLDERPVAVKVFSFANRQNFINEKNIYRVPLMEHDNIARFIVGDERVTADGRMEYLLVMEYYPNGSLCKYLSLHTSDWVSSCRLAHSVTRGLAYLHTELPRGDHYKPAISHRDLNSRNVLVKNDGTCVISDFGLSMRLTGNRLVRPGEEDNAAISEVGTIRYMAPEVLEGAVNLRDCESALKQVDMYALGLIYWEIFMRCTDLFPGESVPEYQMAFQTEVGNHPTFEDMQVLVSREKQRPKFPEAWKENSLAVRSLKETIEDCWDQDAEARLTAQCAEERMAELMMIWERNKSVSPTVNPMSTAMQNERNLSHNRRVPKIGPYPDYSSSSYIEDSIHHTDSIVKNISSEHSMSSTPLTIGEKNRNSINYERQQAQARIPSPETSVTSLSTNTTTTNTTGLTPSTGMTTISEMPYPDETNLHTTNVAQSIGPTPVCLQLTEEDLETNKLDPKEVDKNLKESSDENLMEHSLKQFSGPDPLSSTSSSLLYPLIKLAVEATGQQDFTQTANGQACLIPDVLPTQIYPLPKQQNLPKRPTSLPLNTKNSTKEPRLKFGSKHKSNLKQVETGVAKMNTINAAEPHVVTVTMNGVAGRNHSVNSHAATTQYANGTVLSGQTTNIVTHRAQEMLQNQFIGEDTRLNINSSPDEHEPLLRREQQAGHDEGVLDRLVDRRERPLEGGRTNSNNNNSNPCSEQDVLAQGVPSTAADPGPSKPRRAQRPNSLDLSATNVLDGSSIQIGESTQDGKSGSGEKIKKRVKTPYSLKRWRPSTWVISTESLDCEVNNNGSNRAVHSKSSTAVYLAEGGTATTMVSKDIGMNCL
AURKA (human), sequence (O14965 whole entry, looked up): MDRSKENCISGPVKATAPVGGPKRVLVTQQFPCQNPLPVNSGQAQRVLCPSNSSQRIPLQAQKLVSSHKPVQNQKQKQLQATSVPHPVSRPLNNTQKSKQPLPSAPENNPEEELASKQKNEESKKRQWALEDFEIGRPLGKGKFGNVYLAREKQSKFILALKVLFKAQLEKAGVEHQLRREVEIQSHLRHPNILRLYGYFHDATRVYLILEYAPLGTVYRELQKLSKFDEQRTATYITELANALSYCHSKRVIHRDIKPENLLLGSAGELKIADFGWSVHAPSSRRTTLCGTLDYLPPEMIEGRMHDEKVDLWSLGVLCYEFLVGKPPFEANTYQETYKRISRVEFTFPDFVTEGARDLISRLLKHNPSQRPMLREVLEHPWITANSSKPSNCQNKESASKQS
RIPK2 (human), sequence (O43353 whole entry, looked up): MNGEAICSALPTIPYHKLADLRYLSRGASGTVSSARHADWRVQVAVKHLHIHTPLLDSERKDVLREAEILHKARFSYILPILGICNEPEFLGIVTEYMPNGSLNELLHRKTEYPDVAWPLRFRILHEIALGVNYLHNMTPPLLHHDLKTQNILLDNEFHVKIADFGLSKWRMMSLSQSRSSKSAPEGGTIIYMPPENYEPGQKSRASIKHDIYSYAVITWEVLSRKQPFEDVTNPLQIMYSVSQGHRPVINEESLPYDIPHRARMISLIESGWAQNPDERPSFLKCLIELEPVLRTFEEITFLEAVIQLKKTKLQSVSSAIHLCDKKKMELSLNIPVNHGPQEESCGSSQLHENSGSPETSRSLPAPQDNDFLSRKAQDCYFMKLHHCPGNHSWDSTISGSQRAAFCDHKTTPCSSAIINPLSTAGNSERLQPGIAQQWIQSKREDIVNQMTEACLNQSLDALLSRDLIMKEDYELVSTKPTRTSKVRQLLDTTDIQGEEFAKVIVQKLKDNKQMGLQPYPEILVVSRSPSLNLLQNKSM
MAP3K9 (human), sequence (P80192 whole entry, looked up): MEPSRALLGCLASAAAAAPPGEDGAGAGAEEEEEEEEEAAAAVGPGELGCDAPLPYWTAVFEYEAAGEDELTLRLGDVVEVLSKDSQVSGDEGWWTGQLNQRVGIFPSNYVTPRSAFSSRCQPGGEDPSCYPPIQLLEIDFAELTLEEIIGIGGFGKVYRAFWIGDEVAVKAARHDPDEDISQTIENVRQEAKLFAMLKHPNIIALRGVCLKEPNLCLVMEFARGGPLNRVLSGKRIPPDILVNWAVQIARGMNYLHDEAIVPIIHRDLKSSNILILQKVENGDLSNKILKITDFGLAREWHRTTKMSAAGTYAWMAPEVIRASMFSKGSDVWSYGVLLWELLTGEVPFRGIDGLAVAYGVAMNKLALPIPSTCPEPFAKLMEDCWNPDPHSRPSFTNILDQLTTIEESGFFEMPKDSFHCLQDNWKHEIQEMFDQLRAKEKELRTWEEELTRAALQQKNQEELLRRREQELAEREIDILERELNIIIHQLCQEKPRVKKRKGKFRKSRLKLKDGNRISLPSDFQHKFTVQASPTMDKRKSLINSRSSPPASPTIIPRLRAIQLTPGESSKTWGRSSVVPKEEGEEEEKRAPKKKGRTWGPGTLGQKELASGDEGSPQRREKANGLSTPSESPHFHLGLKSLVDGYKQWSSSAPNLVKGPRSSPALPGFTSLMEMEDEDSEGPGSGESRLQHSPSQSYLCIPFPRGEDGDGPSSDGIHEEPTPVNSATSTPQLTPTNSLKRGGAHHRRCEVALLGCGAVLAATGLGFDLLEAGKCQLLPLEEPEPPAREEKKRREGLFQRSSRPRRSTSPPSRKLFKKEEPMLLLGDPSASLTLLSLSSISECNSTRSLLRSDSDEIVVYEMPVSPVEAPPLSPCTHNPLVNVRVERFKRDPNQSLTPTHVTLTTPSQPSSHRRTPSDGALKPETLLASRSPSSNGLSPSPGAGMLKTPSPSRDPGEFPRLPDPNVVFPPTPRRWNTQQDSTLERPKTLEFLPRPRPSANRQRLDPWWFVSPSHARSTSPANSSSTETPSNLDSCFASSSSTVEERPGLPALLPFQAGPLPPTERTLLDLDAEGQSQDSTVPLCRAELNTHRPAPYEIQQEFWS

| Compound | kinase still bound, per cent of control (AURKA (human)) [%] | kinase still bound, per cent of control (BMPR2 (human)) [%] | kinase still bound, per cent of control (CDC42BPB (human)) [%] | kinase still bound, per cent of control (CDK7 (human)) [%] | kinase still bound, per cent of control (CDKL2 (human)) [%] | kinase still bound, per cent of control (CLK3 (human)) [%] | kinase still bound, per cent of control (CSNK1E (human)) [%] | kinase still bound, per cent of control (CaMK1 (human)) [%] | kinase still bound, per cent of control (DAPK3 (human)) [%] | kinase still bound, per cent of control (DDR2 (human)) [%] | kinase still bound, per cent of control (EIF2AK2 (human)) [%] | kinase still bound, per cent of control (EPHA3 (human)) [%] | kinase still bound, per cent of control (EPHB1 (human)) [%] | kinase still bound, per cent of control (EPHB3 (human)) [%] | kinase still bound, per cent of control (HIPK1 (human)) [%] | kinase still bound, per cent of control (IRAK3 (human)) [%] | kinase still bound, per cent of control [1] [%] | kinase still bound, per cent of control [2] [%] | kinase still bound, per cent of control (MAP3K9 (human)) [%] | kinase still bound, per cent of control (MAP4K5 (human)) [%] | other results |
| --- | --- | --- | --- | --- | --- | --- | --- | --- | --- | --- | --- | --- | --- | --- | --- | --- | --- | --- | --- | --- | --- |
| C=CC(=O)Nc1cccc(Oc2nc(Nc3ccc(N4CCN(C)CC4)cc3OC)ncc2Cl)c1 | 28 | 8.6 | 100 | 35 | 100 | 100 | 100 | 100 | 7.4 | 100 | 100 | 100 | 100 | 100 | 100 | 34 | 100 | 100 | 35 | 100 | kinase still bound, per cent of control (MAPK1 (human)): 100%; kinase still bound, per cent of control (MAPK12 (human)): 100%; kinase still bound, per cent of control (MAPK4 (human)): 100%; kinase still bound, per cent of control (MARK1 (human)): 11%; kinase still bound, per cent of control (MUSK (human)): 100%; kinase still bound, per cent of control (MYLK2 (human)): 100%; kinase still bound, per cent of control (NEK6 (human)): 9%; kinase still bound, per cent of control (NEK7 (human)): 12%; kinase still bound, per cent of control (PHKG2 (human)): 3.5%; kinase still bound, per cent of control (PIM1 (human)): 100%; kinase still bound, per cent of control (PIP4K2B (human)): 100%; kinase still bound, per cent of control (PRKACA (human)): 100%; kinase still bound, per cent of control (PRKACB (human)): 100%; kinase still bound, per cent of control (RIOK2 (human)): 12%; kinase still bound, per cent of control (RIPK2 (human)): 100%; kinase still bound, per cent of control (ROS1 (human)): 5%; kinase still bound, per cent of control (RPS6KA6 KD1 (human)): 100%; kinase still bound, per cent of control (SRC (human)): 100%; kinase still bound, per cent of control (TLK1 (human)): 100%; kinase still bound, per cent of control (TSSK1B (human)): 100% |
| Cc1ccc(C(=O)Nc2cccc(C(F)(F)F)c2)cc1Nc1cncc(C(N)=O)c1 | 100 | 100 | 100 | 100 | 100 | 100 | 100 | 100 | 100 | 0 | 100 | 8.8 | 1.8 | 3.3 | 100 | 100 | 100 | 100 | 100 | 100 | kinase still bound, per cent of control (MAPK1 (human)): 100%; kinase still bound, per cent of control (MAPK12 (human)): 100%; kinase still bound, per cent of control (MAPK4 (human)): 100%; kinase still bound, per cent of control (MARK1 (human)): 100%; kinase still bound, per cent of control (MUSK (human)): 100%; kinase still bound, per cent of control (MYLK2 (human)): 100%; kinase still bound, per cent of control (NEK6 (human)): 100%; kinase still bound, per cent of control (NEK7 (human)): 100%; kinase still bound, per cent of control (PHKG2 (human)): 100%; kinase still bound, per cent of control (PIM1 (human)): 100%; kinase still bound, per cent of control (PIP4K2B (human)): 100%; kinase still bound, per cent of control (PRKACA (human)): 100%; kinase still bound, per cent of control (PRKACB (human)): 100%; kinase still bound, per cent of control (RIOK2 (human)): 100%; kinase still bound, per cent of control (RIPK2 (human)): 100%; kinase still bound, per cent of control (ROS1 (human)): 100%; kinase still bound, per cent of control (RPS6KA6 KD1 (human)): 100%; kinase still bound, per cent of control (SRC (human)): 100%; kinase still bound, per cent of control (TLK1 (human)): 100%; kinase still bound, per cent of control (TSSK1B (human)): 100% |
